The record followed here is patent US7759397B2, “6-amino(aza)indane compounds suitable for treating disorders that respond to modulation of the dopamine D3 receptor” (Abbott GmbH & Co. KG, priority 2004, dated 2010).

Molecules are shown by their SMILES.

Assay [1] concerns the target T1, human dopamine D3 receptors (Homo sapiens, UniProt P35462).
T1 construct: expressed in transfected cells
The assay can be described thus: Dopamine D3 receptor binding, displacement of [125I]-iodosulpride. The conditions noted are these: ratio of receptor binding constants D2 over D3. The procedure:
(§1) The substance to be tested was either dissolved in methanol/Chremophor® (BASF-AG) or in dimethyl sulfoxide and then diluted with water to the desired concentration.
(§2) Each assay mixture was run in triplicate.
The incubation buffer contained 50 mM tris, 120 mM NaCl, 5 mM KCl, 2 mM CaCl2, 2 mM MgCl2 and 0.1% bovine serum albumin, 10 μM […] and 0.1% ascorbic acid (prepared fresh daily). The buffer was adjusted to pH 7.4 with HCl. Dopamine D2L receptor:
(§3) After having been incubated at 25° C. for 60 minutes, the assay mixtures were filtered through a Whatman GF/B glass fiber filter under vacuum using a cell collecting device. The filters were transferred to scintillation viols using a filter transfer system. After 4 ml of Ultima Gold® (Packard) have been added, the samples were shaken for one hour and the radioactivity was then counted in a Beta-Counter (Packard, Tricarb 2000 or 2200CA). The cpm values were converted into dpm using a standard quench series and the program belonging to the instrument.
(§4) The inhibition curves were analyzed by means of iterative nonlinear regression analysis using the Statistical Analysis System (SAS) which is similar to the “LIGAND” program described by Munson and Rodbard.

Assay [2] addresses T2, human dopamine D2L receptors (long isoform) (Homo sapiens, UniProt P14416).
T2 construct: expressed in transfected cells
The assay can be described thus: Dopamine D2L receptor binding, displacement of [125I] iodospiperone. The conditions noted are these: membranes of HEK-293 cells stably expressing human D2L; 0.01 nM [125I] iodospiperone; 25° C., 60 minutes; read-out: Ki(D2)* receptor binding constant. The procedure:
as §1, §2
The incubation buffer contained 50 mM tris, 120 mM NaCl, 5 mM KCl, 2 mM CaCl2, 2 mM MgCl2 and 0.1% bovine serum albumin. The buffer was adjusted to pH 7.4 with HCl.
as §3, §4

Assay [3] addresses T1, human dopamine D3 receptors. Briefly: Dopamine D3 receptor binding, displacement of [125I]-iodosulpride. The conditions noted are these: membranes of HEK-293 cells stably expressing human D3; 0.1 nM [125I]-iodosulpride; 25° C., 60 minutes; read-out: Ki(D3)* receptor binding constant.

T2 sequence (P14416 whole entry, canonical isoform): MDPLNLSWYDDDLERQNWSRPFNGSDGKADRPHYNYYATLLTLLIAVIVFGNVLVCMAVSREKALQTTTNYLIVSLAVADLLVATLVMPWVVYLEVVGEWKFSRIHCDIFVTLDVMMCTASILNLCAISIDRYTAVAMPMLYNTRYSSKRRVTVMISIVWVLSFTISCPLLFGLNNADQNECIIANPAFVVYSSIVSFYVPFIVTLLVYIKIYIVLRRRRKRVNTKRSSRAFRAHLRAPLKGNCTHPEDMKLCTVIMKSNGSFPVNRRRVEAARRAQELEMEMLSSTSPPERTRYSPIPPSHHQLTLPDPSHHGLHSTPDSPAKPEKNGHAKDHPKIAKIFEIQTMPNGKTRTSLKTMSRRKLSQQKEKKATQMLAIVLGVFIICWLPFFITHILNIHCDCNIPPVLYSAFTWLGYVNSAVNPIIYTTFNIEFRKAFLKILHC
T1 sequence (P35462 whole entry): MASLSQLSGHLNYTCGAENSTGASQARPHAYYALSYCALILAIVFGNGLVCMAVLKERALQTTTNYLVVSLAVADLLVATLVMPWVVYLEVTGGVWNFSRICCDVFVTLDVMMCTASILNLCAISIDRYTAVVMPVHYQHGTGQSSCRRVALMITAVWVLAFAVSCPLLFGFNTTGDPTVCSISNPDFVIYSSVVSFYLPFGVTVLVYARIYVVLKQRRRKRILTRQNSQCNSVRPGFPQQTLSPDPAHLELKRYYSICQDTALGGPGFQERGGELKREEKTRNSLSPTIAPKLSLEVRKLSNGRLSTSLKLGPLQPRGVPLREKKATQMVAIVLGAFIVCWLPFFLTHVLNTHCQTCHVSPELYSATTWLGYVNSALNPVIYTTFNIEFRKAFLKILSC

For the compound `CCCN[C@@H]1Cc2ccc(NS(=O)(=O)c3ccc(C(C)C)cc3)cc2C1` [Example 1, 4-Isopropyl-N—((R)-2-propylamino-indan-5-yl)-benzenesulfonamide], in assay [1], the “Ki(D2)*/Ki(D3)* selectivity ratio” value is given as 64. The inhibition constant Ki in assay [2] was 257 nM; in assay [3], 4 nM.
As for `CCCN[C@H]1Cc2ccc(NS(=O)(=O)c3ccc(C(C)C)cc3)cc2C1.Cl` [Example 2, 4-Isopropyl-N—((S)-2-propylamino-indan-5-yl)-benzenesulfonamide hydrochloride], the “Ki(D2)*/Ki(D3)* selectivity ratio” value in assay [1] was 20. Also, the Ki was found to be 132 nM in assay [2] and 6.7 nM in assay [3].
For `CCCN[C@H]1Cc2ccc(N(C)S(=O)(=O)c3ccc(C(C)C)cc3)cc2C1` [Example 3, 4-isopropyl-N-methyl-N—((S)-2-propylamino-indan-5-yl)-benzenesulfonamide] the same measures were 22, 157 nM and 7 nM.
`CCCN1CCC[C@H]2c3cc(NS(=O)(=O)c4ccc(C(C)C)cc4)ccc3C[C@@H]21` [4 (SS)-isomer]: the “Ki(D2)*/Ki(D3)* selectivity ratio” value in assay [1] is on record as 17. Besides, the inhibition constant (Ki) in assay [3] was 1.6 nM.
Turning to `CCCN(CCC)[C@@H]1Cc2ccc(NS(=O)(=O)c3ccc(C(C)C)cc3)cc2C1.Cl` [Example 7, N—((R)-2-Dipropylamino-indan-5-yl)-4-isopropyl-benzenesulfonamide hydrochloride], the “Ki(D2)*/Ki(D3)* selectivity ratio” value in assay [1] is 195. Besides, the Ki in assay [2] amounted to 51 nM; in assay [3], 0.26 nM.
Turning to `CCCN1CCC[C@@H]2c3cc(NS(=O)(=O)c4ccc(C(C)C)cc4)ccc3C[C@H]21` [4 (RR)-isomer], the “Ki(D2)*/Ki(D3)* selectivity ratio” value in assay [1] came out at 134. Also, the Ki in assay [3] amounted to 9.4 nM.
